Measured values as given in PMC12308784, “Organometallic Half-Sandwich Complexes of 1,10-Phenanthroline Derivatives with Improved Solubility, Albumin-Binding, and Nanoformulation Potential Targeting Drug Resistance in Cancer” (Inorganic Chemistry, 2025).

How the values were obtained:
[1] = system: MDA-MB-231, MCF-7 and T-47D breast cancer cell lines; assay: PrestoBlue cytotoxicity, range over the three breast cancer lines; type: cell-based; details: MDA-MB-231, MCF-7, T-47D; 72 h
Method: The PHEN-derived ligands (DCP, BP) (together with PHEN for comparison) and the isolated complexes ([RuCym(DCP)-Cl]-Cl, [RhCp*(DCP)-Cl]-Cl, [RuCym(BP)-Cl]-Cl, [RhCp*(BP)-Cl]-Cl) were tested against the estrogen receptor (ER) negative MDA-MB-231, and the ER positive MCF-7 and T-47D breast cancer cell lines (Table , and Figure a for easier comparison).
MDA-MB-231 breast adenocarcinoma and MCF-7 and T-47D invasive breast carcinomas were purchased from the Developmental Therapeutic Program of the National Cancer Institute (NIH, USA), and they were cultured in RPMI medium (Thermo Fisher). MES–SA and MES–SA/Dx5 uterine sarcoma cell lines were purchased from American Type Culture Collection and were kept in DMEM (Thermo Fisher). MES–SA/B1 was created by the transfection of the human MDR1 gene in MES–SA, and MES–SA mCherry, MES–SA/B1 mOrange, and MES–SA/Dx5 eGFP were engineered to stably express the respective fluorescent proteins, as described previously. Culture media were supplemented with 10% fetal bovine serum, 2 mM L-glutamine, 100 units/mL penicillin, and 100 μg/mL streptomycin (Thermo Fisher). Cells were kept at 37 °C under 5% CO2 and were negative for mycoplasma infection.
Cytotoxicity of the nonfluorescent cancer cells (MDA-MB-231, MCF-7, T-47D) were assessed with PrestoBlue cell viability reagent (Thermo Fisher). Briefly, 2500 cells/well were seeded on 384-well plates, and then the next day drugs were added. After 72 h incubation, PrestoBlue was added in a 10% final concentration, and after an hour of additional incubation, plates were measured with a PerkinElmer EnSpire plate reader at 555 nm/585 nm excitation/emission wavelengths. Fluorescent cells (MES-SA mCherry, MES-SA/B1 mOrange, MES-SA/Dx5 eGFP) were admixed before seeding on 384-well plates at 800 cells/well density each, thus altogether 2400 cells/well. Drugs were added the following day, and the intensity of the fluorescent proteins were measured after 144 h incubation at the respective fluorescent channels (excitation/emission: eGFP: 485 nm/510 nm; mCherry: 585 nm/610 nm; mOrange: 545 nm/567 nm). pIC50 values were calculated by a custom program written by Judit Sessler in C#. IC50 values and standard deviation were calculated from average pIC50 values from at least 3 independent measurements.

[2] = target: T1, HSA Sudlow’s site I (IIA subdomain) (Homo sapiens, UniProt P02768); assay: warfarin (WF) site marker displacement on HSA; type: binding; details: PBS’; t = 25 °C; HSA–WF 1:1, 1.2 μM
T1 construct: purchased Sigma-Aldrich A8763
Method: To further explore the binding affinity and site specificity of the metal complexes, site marker displacement experiments were conducted using WF and DG, which bind to Sudlow’s site I (in IIA subdomain) and to Sudlow’s site II (in IIIA subdomain), respectively. The displacement of these fluorescence probes directly confirms the interactions of the metal complexes with the respective binding sites. The displacement constants of WF (KWF′) by the metal complexes (Figure c,d, Table ) were correlated with the Trp-214 quenching data.
Fluorescence measurements were carried out on a Fluoromax (Horiba Jobin Yvon) spectrofluorometer using a 1 cm × 1 cm quartz cuvette in order to assess the interactions of the complexes with HSA in PBS’ medium at 25 °C. The calculated quenching or displacement conditional constants for the HSA-complex species were obtained using the computer program HypSpec. Calculations always were based on data obtained from at least two independent measurements. Self-absorbance and inner filter effect had to be taken into account, and corrections were made as it was described in our former works. ,
Table S7. Conditions applied for steady -state spectrofluorometric measurements.
cHSA cMARKER ccomplex λEX λEM slit widths
(μM) (μM) (μM) (nm) (nm) EX/EM […]
S.; Deflon, V. M.; Ferreira, A. G.; Cominetti, M. R.; Batista, A. A. Cytotoxicity of Ru(II) Piano-
Stool Complexes with Chloroquine and Chelating Ligands against Breast and Lung Tumor Cells:
Interactions with DNA and BSA. J Inorg Biochem 2015, 153, 150–161.
Van Deun, R.; Van Hecke, K. Antitumor Activity of Organoruthenium Complexes with Chelate

[3] = H2O/Cl– co-ligand exchange constant by UV–vis spectrophotometry; type: physicochemical; details: pH = 6.0, 20 mM phosphate buffer; t = 25 °C
Method: The coordinated chlorido ligand can undergo spontaneous partial exchange upon dissolution, making it essential to determine the equilibrium constant for the [M(η^6-arene/η^5-arenyl)(ligand)-Cl]^+ + H2O ⇌ [M(η^6-arene/η^5-arenyl)(ligand)(H2O)]^2+ + Cl^– process (or for the reverse direction) to evaluate the ratio of chlorido to aqua complexes. The logK′ (H2O/Cl^–) constants were determined by UV–vis spectrophotometry (Figure ) due to the changes in the charge transfer bands. […] Importantly, this process is slow for the RuCym complexes, which requires a longer time to reach equilibrium, necessitating careful equilibration in experimental setups before further analysis. Therefore, in the case of the RuCym complexes, individual samples were prepared and their spectra were measured after 1 h, while the spectra for the RhCp* complexes were obtained by direct titration with the KCl solution. The appearance of isosbestic points in the spectra confirms the clear equilibrium between chlorido- and aqua complexes.
4 (a) Changes in the UV–vis spectra of complex RuCymBP due to the H2O/Cl^– coligand exchange process, (b) with absorbance variation at 357 nm plotted as a function of the chloride concentration (○) with the fitted curve (dashed line). Individual samples were prepared and the spectra were recorded after 1 h waiting time. {c complex = 28 μM; c Cl– = 56 μM – 0.29 M; t = 25 °C; pH = 6.0 (20 mM phosphate buffer)}.
An Agilent Cary 8454 diode array spectrophotometer was utilized to obtain UV–vis spectra in the wavelength range 190–1100 nm; the path length was 1 cm. The concentrations of the complexes were between 20 and 100 μM. The actual pH of the samples were measured with an Orion 710A pH-meter equipped with a Metrohm combined electrode (type 6.0234.100) and the pH titrations were performed by a KOH solution using a Metrohm 665 Dosimat buret at 25.0 °C. […] The computer program HypSpec was used to calculate the equilibrium constants.

T1 sequence (P02768 25-609): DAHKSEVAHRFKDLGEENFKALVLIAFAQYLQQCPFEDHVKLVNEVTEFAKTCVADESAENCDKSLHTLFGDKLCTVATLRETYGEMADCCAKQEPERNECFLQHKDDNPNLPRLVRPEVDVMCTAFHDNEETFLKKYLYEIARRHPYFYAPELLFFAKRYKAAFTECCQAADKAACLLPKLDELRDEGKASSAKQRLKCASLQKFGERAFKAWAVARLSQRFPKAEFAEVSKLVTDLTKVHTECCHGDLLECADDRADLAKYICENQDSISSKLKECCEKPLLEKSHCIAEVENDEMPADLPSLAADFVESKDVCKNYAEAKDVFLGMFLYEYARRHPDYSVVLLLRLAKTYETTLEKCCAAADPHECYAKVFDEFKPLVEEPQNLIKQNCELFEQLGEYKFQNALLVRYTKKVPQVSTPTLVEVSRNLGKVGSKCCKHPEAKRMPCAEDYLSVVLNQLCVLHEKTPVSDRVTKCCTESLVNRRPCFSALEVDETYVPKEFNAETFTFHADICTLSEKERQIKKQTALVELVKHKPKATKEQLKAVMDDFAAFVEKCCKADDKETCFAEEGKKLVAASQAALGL

Molecule | IC50 [1] [µM] | logK WF′ (WF displacement constant) [2] | logK′ (H2O/Cl–) [3]
Clc1ccnc2c1ccc1c(Cl)ccnc12 [DCP, 4,7-dichloro-1,10-phenanthroline] | 3.8 to 5.1 |  | 
[Rh(III)(η^5-C5Me5)(bathophenanthroline)Cl]Cl [RhCp*BP] | 4.7 to 14.9 | 5.6 ± 0.1 | 2.98 ± 0.01
Cc1ccc(C(C)C)cc1.[Cl-].[Cl-].[Ru+2].c1ccc(-c2ccnc3c2ccc2c(-c4ccccc4)ccnc23)cc1 [RuCymBP, [Ru(II)(η^6-p-cymene)(bathophenanthroline)Cl]Cl] | 1.2 to 1.9 | 4.4 ± 0.1 | 2.31 ± 0.13
Cc1ccc(C(C)C)cc1.Clc1ccnc2c1ccc1c(Cl)ccnc12.[Cl-].[Cl-].[Ru+2] [RuCymDCP, [Ru(II)(η^6-p-cymene)(4,7-dichloro-1,10-phenanthroline)Cl]Cl] | > 75 | ≤4.3 | 2.31 ± 0.03
Cc1c(C)c(C)[c-](C)c1C.Clc1ccnc2c1ccc1c(Cl)ccnc12.[Cl-].[Cl-].[Rh+3] [RhCp*DCP, [Rh(III)(η^5-C5Me5)(4,7-dichloro-1,10-phenanthroline)Cl]Cl] | 5.9 to 7.6 | 4.8 ± 0.1 | 2.85 ± 0.01 ^b
c1ccc(-c2ccnc3c2ccc2c(-c4ccccc4)ccnc23)cc1 [BP, 4,7-diphenyl-1,10-phenanthroline] | 0.59 to 0.76 |  | 
